The values that follow come from publication PMC8848768, “Synthesis and evaluation of potent yaku'amide A analogs” (Chemical Science, 2022).

The structures appear in SMILES notation. Numbered stars: 1 amine (or outer) side, 2 acyl side, 3 side chain; on linkers, the order of the positions; unused ones are H or OH. Square brackets hold non-standard residues; d marks the D form. Peptide text beside a SMILES is read from it. * marks the point of attachment. Heptanoyl(3-oxo-2,2,4S,6-Me) = CC(C)C[C@H](C)C(=O)C(C)(C)C(=O)*; NH((S)-1-NMe2-3-Me-but-2-yl) = CC(C)[C@@H](CN(C)C)N*; Ile(3R-OH) = CC[C@@](C)(O)[C@H](N)C(=O)O; dVal(3-OH) = CC(C)(O)[C@@H](N)C(=O)O; d(aIle) = CC[C@H](C)[C@@H](N)C(=O)O; Val(3-OH) = CC(C)(O)[C@H](N)C(=O)O; X1 = CCC(CC)=C(N[*:1])C(=O)[*:2]; NHCH2CH2NMe2 = CN(C)CCN*; ΔVal = CC(C)=C(N)C(=O)O

The subject of one assay is MCF7. The note with it: read-out: Aver IC50, MCF7; MCF7 (Breast Carcinoma); MTS, 72 hours, 37 °C, 5% CO2, 384-well; n>2 independent studies (in duplicate). How it is done: (§1) The antiproliferative activity profiles of 1a, its full-length analogs 2a and 2b, and its partial structures (23, 24, 26, and 30) were determined by in vitro screening in 72 hours MTS cell proliferation assays against a panel of 18 different human cancer cell lines. […] The three peptides were also evaluated for their antiproliferative activity against the lung fibroblast MRC5 cell line.
(§2) Cells (40 µ L) are added into individual wells of a 384-well black/clear bottom plate on day zero at concentrations enabling continuous log growth over the course of the assay. On day one, compounds (or DMSO) are transferred using an ATS-liquid handler (100 nL per well) to individual wells containing cells and the cells are treated for 72 hours (37 °C, 5% CO 2) prior to measuring proliferation using MTS reagent following manufacturer’s instructions. Net OD values are determined by subtracting the average OD values of cells (measured on day 1, T = 0) from average total OD value of cells (measured on day 4, T = 72h). IC 50 values are calculated using proprietary software (IC 50 values normalized against all compounds). Results represent n>2 independent studies (in duplicate).
(§3) Table S1. Antiproliferative Data of Compounds 1a, 2a, 2b, 23, 24, 26, and 30.
(§4) Table S2. Human Cell Line Descriptions.
(§5) Human Cell Line* Description
(§6) *All cells were obtained from ATCC and are authenticated

The subject of a further assay is A375. The assay is described as follows: cells. The note with it: read-out: Aver IC50, A375; A375 (Malignant Melanoma); MTS, 72 hours, 37 °C, 5% CO2, 384-well; n>2 independent studies (in duplicate). How it is done:
as §1, §2, §3, §4, §5, §6

The subject of the next assay is HT29. The assay is described as follows: cells. As to conditions: read-out: Aver IC50, HT29; HT29 (Colon Carcinoma); MTS, 72 hours, 37 °C, 5% CO2, 384-well; n>2 independent studies (in duplicate). The method, then:
as §1, §2, §3, §4, §5, §6

For a further assay, the system named is MV411. The assay can be described thus: cells. The note with it: read-out: Aver IC50, MV411; MV411 (Acute Myeloid Leukemia); MTS, 72 hours, 37 °C, 5% CO2, 384-well; n>2 independent studies (in duplicate). The method, then:
as §1, §2, §3, §4, §5, §6

For a further assay, the system named is U937. The assay is described as follows: cells. As to conditions: read-out: Aver IC50, U937; U937 (Pro-monocytic, Human Myeloid Leukemia); MTS, 72 hours, 37 °C, 5% CO2, 384-well; n>2 independent studies (in duplicate). How it is done: as §1, §2, §3, §4, §5, §6
Another assay deals with A549. The assay is described as follows: cells. As to conditions: read-out: Aver IC50, A549; A549 (Lung - NSCLC); MTS, 72 hours, 37 °C, 5% CO2, 384-well; n>2 independent studies (in duplicate). The method, then: as §1, §2, §3, §4, §5, §6
The test system of another assay is JURKAT. The assay is described as follows: cells. As to conditions: read-out: Aver IC50, JURKAT; JURKAT (acute T-cell leukemia); MTS, 72 hours, 37 °C, 5% CO2, 384-well; n>2 independent studies (in duplicate). How it is done: as §1, §2, §3, §4, §5, §6
Another assay deals with THP1. The assay is described as follows: cells. As to conditions: read-out: Aver IC50, THP1; THP1 (Acute Monocytic Leukemia); MTS, 72 hours, 37 °C, 5% CO2, 384-well; n>2 independent studies (in duplicate). The method, then:
as §1, §2, §3, §4, §5, §6

In assay [1] the test system is lung fibroblast MRC5 cell line. The assay can be described thus: cells. As to conditions: read-out: Aver IC50, MRC5; MRC5 (Lung Fibroblast, noncancerous); MTS, 72 hours, 37 °C, 5% CO2, 384-well; n>2 independent studies (in duplicate). The method, then:
as §1, §2, §3, §4, §5, §6

The test system of the next assay is OVCAR3. The assay is described as follows: cells. The note with it: read-out: Aver IC50, OVCAR3; OVCAR3 (Ovary - Adenocarcinoma); MTS, 72 hours, 37 °C, 5% CO2, 384-well; n>2 independent studies (in duplicate). How it is done: as §1, §2, §3, §4, §5, §6
The subject of the next assay is NCIH1048. The assay is described as follows: cells. The note with it: read-out: Aver IC50, NCIH1048; NCIH1048 (Lung - SCLC); MTS, 72 hours, 37 °C, 5% CO2, 384-well; n>2 independent studies (in duplicate). How it is done:
as §1, §2, §3, §4, §5, §6

Another assay has as its system COLO678. The assay is described as follows: cells. As to conditions: read-out: Aver IC50, COLO678; COLO678 (Colon Carcinoma); MTS, 72 hours, 37 °C, 5% CO2, 384-well; n>2 independent studies (in duplicate). The method, then: as §1, §2, §3, §4, §5, §6
A further assay concerns SNUC1. The assay can be described thus: cells. As to conditions: read-out: Aver IC50, SNUC1; SNUC1 (Colon Carcinoma); MTS, 72 hours, 37 °C, 5% CO2, 384-well; n>2 independent studies (in duplicate). The method, then:
as §1, §2, §3, §4, §5, §6

Another assay concerns HL60. The assay can be described thus: cells. The note with it: read-out: Aver IC50, HL60; HL60 (Leukema - Promyelocytic); MTS, 72 hours, 37 °C, 5% CO2, 384-well; n>2 independent studies (in duplicate). The method, then:
as §1, §2, §3, §4, §5, §6

For another assay, the system named is PANC1005. The assay is described as follows: cells. As to conditions: read-out: Aver IC50, PANC1005; PANC1005 (Pancreatic - Adenocarcinoma); MTS, 72 hours, 37 °C, 5% CO2, 384-well; n>2 independent studies (in duplicate). The method, then:
as §1, §2, §3, §4, §5, §6

The test system of the next assay is BXPC3. The assay can be described thus: cells. The note with it: read-out: Aver IC50, BXPC3; BXPC3 (Pancreatic - Adenocarcinoma); MTS, 72 hours, 37 °C, 5% CO2, 384-well; n>2 independent studies (in duplicate). The method, then:
as §1, §2, §3, §4, §5, §6

Another assay concerns RAMOS. The assay is described as follows: cells. The note with it: read-out: Aver IC50, RAMOS; RAMOS (Burkitt's lymphoma); MTS, 72 hours, 37 °C, 5% CO2, 384-well; n>2 independent studies (in duplicate). How it is done: as §1, §2, §3, §4, §5, §6
The subject of another assay is CALU6. The assay is described as follows: cells. As to conditions: read-out: Aver IC50, CALU6; CALU6 (Lung - Adenocarcinoma); MTS, 72 hours, 37 °C, 5% CO2, 384-well; n>2 independent studies (in duplicate). How it is done: as §1, §2, §3, §4, §5, §6
The test system of the next assay is HCT116. The assay is described as follows: cells. The note with it: read-out: Aver IC50, HCT116; HCT116 (Colon Carcinoma); MTS, 72 hours, 37 °C, 5% CO2, 384-well; n>2 independent studies (in duplicate). The method, then: as §1, §2, §3, §4, §5, §6

As usually defined, the IC50 is the concentration needed to halve the response being measured.

For the compound `CCC(CC)=C(NC(=O)CNC(=O)C(NC(=O)[C@@H](NC(=O)C(C)(C)C(=O)[C@@H](C)CC(C)C)[C@](C)(O)CC)=C(C)C)C(=O)N[C@@H](C(=O)N[C@@H](C(=O)N[C@@H](C(=O)N[C@H](C(=O)NC(C(=O)N[C@H](C)C(=O)NCCN(C)C)=C(C)C)C(C)(C)O)C(C)(C)O)[C@@H](C)CC)C(C)C` [Compound 30] ({Heptanoyl(3-oxo-2,2,4S,6-Me)}-[Ile(3R-OH)][ΔVal]G[X1][dV][d(aIle)][dVal(3-OH)][Val(3-OH)][ΔVal][dA]-NHCH2CH2NMe2), the IC50 in the assay with MCF7 is 12.6 µM; in the assay with A375 it was 24.7 µM; with HT29, above 25 µM; in the assay on MV411, 2.7 µM; in the assay with U937, above 25 µM; in the assay on A549, 20.6 µM. Further, the IC50 in the assay on JURKAT was 22.8 µM; in the assay with THP1, above 25 µM; in assay [1], above 25 µM; with OVCAR3, 12.6 µM; in the assay on NCIH1048 it was above 25 µM; with COLO678, above 25 µM. The IC50 is 20.6 µM with SNUC1; 20 µM in the assay on HL60; above 25 µM in the assay with PANC1005; above 25 µM with BXPC3; 24.3 µM in the assay with RAMOS; above 25 µM with CALU6. The IC50 with HCT116 was above 25 µM.

Consider `CCC(CC)=C(NC(=O)CNC(=O)C(NC(=O)[C@@H](NC(=O)C(C)(C)C(=O)[C@@H](C)CC(C)C)[C@](C)(O)CC)=C(C)C)C(=O)N[C@@H](C(=O)N[C@@H](C(=O)N[C@@H](C(=O)N[C@H](C(=O)NC(C(=O)N[C@H](C)C(=O)N[C@@H](C(=O)N[C@H](C(=O)NC(C(=O)N[C@H](CN(C)C)C(C)C)=C(C)C)C(C)C)C(C)C)=C(C)C)C(C)(C)O)C(C)(C)O)[C@@H](C)CC)C(C)C` [Compound 2b] ({Heptanoyl(3-oxo-2,2,4S,6-Me)}-[Ile(3R-OH)][ΔVal]G[X1][dV][d(aIle)][dVal(3-OH)][Val(3-OH)][ΔVal][dA][dV]V[ΔVal]-{NH((S)-1-NMe2-3-Me-but-2-yl)}), for which the IC50 stood at 13 µM with MCF7; 0.254 µM in the assay on A375; 5.25 µM with HT29; 0.0488 µM in the assay with MV411; 0.947 µM in the assay on U937; 0.249 µM in the assay on A549. Further, the IC50 in the assay with JURKAT came out at 13.4 µM; in the assay with THP1 it was 9.69 µM; in assay [1] it was 17.5 µM; in the assay with OVCAR3, 0.185 µM; in the assay with NCIH1048, 2.37 µM; in the assay with COLO678, 6.5 µM. The IC50 in the assay with SNUC1 is 0.0583 µM; in the assay on HL60 it was 0.465 µM; in the assay on PANC1005, 8.81 µM; in the assay with BXPC3 it was 9.31 µM; with RAMOS it was 1.2 µM; with CALU6, 1 µM. Besides, the IC50 with HCT116 stood at 4.26 µM.
